Data published in ChEMBL document CHEMBL1201862, “PubChem BioAssay data set” (2004).
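Interpolation was linear, between the two tested concentrations surrounding the appropriate level; five concentrations were tested over 48 hours in 96-well plates. GI50 marks 50% less growth.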 Active and inactive are the calls of the source. Rule as the data show it: active = GI50 up to about 1.1 µM and inactive = higher.

Experiments:
Test in all cases: growth of human tumour cells (NCI), 48 h
[1] = system: K562
[2] = system: SF-295
[3] = system: RPMI-8226
[4] = system: 786-0
[5] = system: SR
[6] = system: SK-MEL-5
[7] = system: HL-60
[8] = system: SNB-19
[9] = system: HCC 2998
[10] = system: ACHN
[11] = system: UACC-62
[12] = system: SF-539
[13] = system: HOP-92
[14] = system: SK-OV-3
[15] = system: SNB-75
[16] = system: EKVX
[17] = system: OVCAR-5
[18] = system: RXF 393
[19] = system: OVCAR-4
[20] = system: NCI/ADR-RES

Measured: GI50

O=c1c2cc3c(cc2c2cccc4c2n1CCC4)OCO3
inactive: [1] 45.8 µM | [2] 33.8 µM | [3] 30.2 µM | [4] 27 µM | [5] 29.2 µM | [6] 42.4 µM | [7] 53.8 µM | [8] 44.7 µM | [9] 26.6 µM | [10] 33.7 µM | [11] 46.2 µM | [12] 30.4 µM | [13] 55.5 µM | [14] 55.3 µM | [15] 26.7 µM | [16] 33 µM | [17] 58.7 µM | [18] 28.4 µM | [19] 88.9 µM

CC1=C(C(=O)NCCCN(CCO)CCO)CC(C(=O)NCCCN(CCO)CCO)=C(C)N1
inactive: [1] > 100 µM | [2] > 100 µM | [3] 76 µM | [4] > 100 µM | [6] 22.2 µM | [7] > 100 µM | [8] 66.4 µM | [9] > 100 µM | [10] 97.1 µM | [11] > 100 µM | [12] > 100 µM | [13] 54.6 µM | [14] > 100 µM | [15] 15.2 µM | [20] > 100 µM | [16] > 100 µM | [17] > 100 µM | [18] 26.4 µM | [19] > 100 µM

O=c1[nH]nc(Cc2ccc(Cl)cc2)n1CCO
inactive: [1] > 100 µM | [2] > 100 µM | [3] > 100 µM | [4] > 100 µM | [6] > 100 µM | [7] > 100 µM | [8] > 100 µM | [9] > 100 µM | [10] > 100 µM | [11] > 100 µM | [12] > 100 µM | [13] > 100 µM | [14] > 100 µM | [20] > 100 µM | [16] > 100 µM | [17] > 100 µM | [19] > 100 µM

COc1cc(O)c(/C=N/N=C(\N)NO)c(OC)c1
inactive: [1] > 10 µM | [2] 4.92 µM | [3] > 10 µM | [4] > 10 µM | [6] > 10 µM | [7] > 10 µM | [8] > 10 µM | [9] > 10 µM | [10] 9.14 µM | [11] 9.71 µM | [12] > 10 µM | [13] > 10 µM | [14] > 10 µM | [15] 1.56 µM | [20] 5.04 µM | [16] > 10 µM | [17] > 10 µM | [18] 8.3 µM | [19] > 10 µM

O=C(CCc1nnc2s/c(=C\c3ccc(Cl)cc3Cl)c(=O)n12)Nc1cc(Cl)c(Cl)cc1Cl
inactive: [1] > 10 µM | [2] > 10 µM | [3] > 10 µM | [4] > 10 µM | [5] > 10 µM | [6] > 10 µM | [7] > 100 µM | [8] > 10 µM | [9] > 100 µM | [10] > 10 µM | [11] > 10 µM | [12] > 10 µM | [13] 24 µM | [14] > 10 µM | [15] 29 µM | [16] > 10 µM | [17] > 10 µM | [18] > 10 µM | [19] > 10 µM

O=C(O)C1CCCCN1C(=O)Cc1c[nH]c2ccccc12 (stereo not given)
inactive: [1] > 100 µM | [2] > 100 µM | [3] > 100 µM | [4] > 100 µM | [7] > 100 µM | [8] > 100 µM | [9] > 100 µM | [10] > 100 µM | [11] > 100 µM | [12] > 100 µM | [13] > 100 µM | [14] > 100 µM | [15] > 100 µM | [20] > 100 µM | [16] > 100 µM | [17] > 100 µM | [18] > 100 µM | [19] > 100 µM

CCOC(=O)CNC(SC)=C(C#N)C#N
inactive: [1] > 100 µM | [2] > 100 µM | [3] > 100 µM | [4] > 100 µM | [5] > 100 µM | [6] > 100 µM | [7] > 100 µM | [8] > 100 µM | [9] > 100 µM | [11] > 100 µM | [12] > 100 µM | [13] > 100 µM | [14] > 100 µM | [15] > 100 µM | [16] > 100 µM | [17] > 100 µM | [18] > 100 µM | [19] > 100 µM

COc1cccc(-n2c(N)c(-c3nc4cc(C(F)(F)F)ccc4s3)c3ccc([N+](=O)[O-])cc3c2=O)c1
inactive: [1] > 100 µM | [2] > 100 µM | [3] > 100 µM | [4] > 100 µM | [6] > 100 µM | [8] > 100 µM | [9] > 100 µM | [10] > 100 µM | [11] > 100 µM | [13] > 100 µM | [14] > 100 µM | [15] > 100 µM | [20] > 100 µM | [16] > 100 µM | [17] > 100 µM | [19] > 100 µM

CC(=O)OCCn1c(Cc2ccc(C)cc2)nn(C(C)=O)c1=O
inactive: [1] > 100 µM | [2] > 100 µM | [3] > 100 µM | [4] > 100 µM | [6] > 100 µM | [7] > 100 µM | [8] > 100 µM | [9] > 100 µM | [10] > 100 µM | [11] > 100 µM | [12] > 100 µM | [13] > 100 µM | [14] > 100 µM | [20] > 100 µM | [16] > 100 µM | [17] > 100 µM | [19] > 100 µM

COC(=O)/C=C1/CCC(C(=O)OC)N1 (stereo not given)
inactive: [1] > 100 µM | [2] > 100 µM | [3] > 100 µM | [4] > 100 µM | [5] > 100 µM | [6] > 100 µM | [7] > 100 µM | [8] > 100 µM | [9] > 100 µM | [10] > 100 µM | [11] > 100 µM | [12] > 100 µM | [13] > 100 µM | [14] > 100 µM | [15] > 100 µM | [16] > 100 µM | [18] > 100 µM | [19] > 100 µM

COc1cc2noc(-c3ccccc3)c2cc1OC
inactive: [1] 50.6 µM | [2] 19 µM | [3] 18.7 µM | [4] 29.2 µM | [5] 37 µM | [6] 46.7 µM | [7] 40.1 µM | [8] 54 µM | [9] 58.1 µM | [10] 87.1 µM | [11] 74.3 µM | [12] 10.6 µM | [13] 44.1 µM | [14] 63 µM | [15] 4.59 µM | [17] 29.2 µM | [18] 23.8 µM | [19] > 100 µM

COc1cc(/C=C2\CCc3ccccc3C2=O)cc(OC)c1OC
inactive: [1] 8.43 µM | [2] 15 µM | [3] 3.92 µM | [4] 15.7 µM | [5] 3.86 µM | [6] 12.6 µM | [7] 10.7 µM | [8] 15.8 µM | [9] 18 µM | [10] 15.8 µM | [11] 14.3 µM | [12] 16.9 µM | [13] 11.1 µM | [14] 18.6 µM | [15] 22.2 µM | [16] 17.9 µM | [17] 14.4 µM | [18] 14.6 µM | [19] 23.9 µM

Oc1[nH]c(Nc2cc(Cl)cc(Cl)c2)nc2ncnc1-2
inactive: [1] > 75 µM | [2] > 75 µM | [3] > 75 µM | [4] > 75 µM | [6] > 75 µM | [8] > 75 µM | [9] > 75 µM | [10] > 75 µM | [11] > 75 µM | [12] > 75 µM | [13] > 75 µM | [14] > 75 µM | [15] > 75 µM | [20] > 75 µM | [16] > 75 µM | [17] > 75 µM | [18] > 75 µM | [19] > 75 µM

CN1C/C(=C\c2cccs2)C2=NN(C)C(c3cccs3)C2C1 (stereo not given)
inactive: [1] 29.3 µM | [2] > 100 µM | [3] 24.8 µM | [4] > 100 µM | [6] 58.3 µM | [7] 3.05 µM | [8] > 100 µM | [9] 42.1 µM | [10] > 100 µM | [11] > 100 µM | [13] 20.5 µM | [14] > 100 µM | [20] > 100 µM | [16] > 100 µM | [17] > 100 µM | [18] > 100 µM | [19] 35.8 µM

CC(=O)Oc1ccccc1C(=O)Nc1ncc([N+](=O)[O-])s1 [NITAZOXANIDE]
inactive: [1] 55.7 µM | [2] 9.91 µM | [3] 10.3 µM | [4] 26.7 µM | [6] 11.9 µM | [8] 17.9 µM | [9] 13 µM | [10] 20.4 µM | [11] 4.33 µM | [12] 24.8 µM | [13] 3.22 µM | [14] 14.7 µM | [15] 10.2 µM | [20] 10.3 µM | [16] 21 µM | [17] 29.9 µM | [18] 4.42 µM | [19] 28.7 µM
